# Test results taken from the supplement of paper PMC10307832.
# Assays:
# Assay in all cases: relative viability (nuclei count vs DMSO), 5 days (fraction); higher = more cells survive
# NCI-H23 = tested on: NCI-H23
# Outline: (§1)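 Each reported value is a median over duplicate plates. It expresses relative viability: treated-well nuclei count divided by vehicle-well nuclei count. Lung cancer cell lines in 1536-well plates were dosed by pin tool a day after seeding, alone with one drug or with a fixed anchor-drug dose plus five library-drug doses (not always all listed) in √10 steps, and nuclei were counted after 5 days.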
# LXF-289 = tested on: LXF-289
# Outline: as §1
# NCI-H2126 = tested on: NCI-H2126
# Outline: as §1
# NCI-H1666 = tested on: NCI-H1666
# Outline: as §1
# LCLC-97TM1 = tested on: LCLC-97TM1
# Outline: as §1
# LU99A = tested on: LU99A
# Outline: as §1
# LOU-NH91 = tested on: LOU-NH91
# Outline: as §1
# SK-LU-1 = tested on: SK-LU-1
# Outline: as §1
# NCI-H441 = tested on: NCI-H441
# Outline: as §1
# NCI-H1563 = tested on: NCI-H1563
# Outline: as §1
# NCI-H2023 = tested on: NCI-H2023
# Outline: as §1
# NCI-H1915 = tested on: NCI-H1915
# Outline: as §1
# BEN = tested on: BEN
# Outline: as §1
# NCI-H322M = tested on: NCI-H322M
# Outline: as §1
# NCI-H460 = tested on: NCI-H460
# Outline: as §1
# PC-3 [JPC-3] = tested on: PC-3 [JPC-3]
# Outline: as §1
# HARA = tested on: HARA
# Outline: as §1
# A-427 = tested on: A-427
# Outline: as §1
# NCI-H2170 = tested on: NCI-H2170
# Outline: as §1
compound,measurement,setting,value
COCC1(CO)C(=O)C2CCN1CC2 (stereo not given) [PRIMA-1MET] + CC(C)C[C@H](NC(=O)[C@H](Cc1ccccc1)NC(=O)c1cnccn1)B(O)O [Bortezomib] (partner 0.002 µM),relative viability,NCI-H23; first compound 0.2 µM,0.966
same,relative viability,NCI-H23; first compound 0.6325 µM,0.724
same,relative viability,NCI-H23; first compound 2 µM,0.944
same,relative viability,NCI-H23; first compound 6.325 µM,1.05
same,relative viability,NCI-H23; first compound 20 µM,0.116
same,relative viability,LXF-289; first compound 0.2 µM,0.999
same,relative viability,LXF-289; first compound 0.6325 µM,0.976
same,relative viability,LXF-289; first compound 2 µM,1.12
same,relative viability,LXF-289; first compound 6.325 µM,1
same,relative viability,LXF-289; first compound 20 µM,0.872
same,relative viability,NCI-H2126; first compound 0.2 µM,1.21
same,relative viability,NCI-H2126; first compound 0.6325 µM,1.13
same,relative viability,NCI-H2126; first compound 2 µM,1.06
same,relative viability,NCI-H2126; first compound 6.325 µM,1.16
same,relative viability,NCI-H2126; first compound 20 µM,1.1
same,relative viability,NCI-H1666; first compound 0.2 µM,0.836
same,relative viability,NCI-H1666; first compound 0.6325 µM,0.777
same,relative viability,NCI-H1666; first compound 2 µM,0.816
same,relative viability,NCI-H1666; first compound 6.325 µM,0.983
same,relative viability,NCI-H1666; first compound 20 µM,0.305
same,relative viability,LCLC-97TM1; first compound 0.2 µM,0.526
same,relative viability,LCLC-97TM1; first compound 0.6325 µM,0.428
same,relative viability,LCLC-97TM1; first compound 2 µM,0.533
same,relative viability,LCLC-97TM1; first compound 6.325 µM,0.47
same,relative viability,LCLC-97TM1; first compound 20 µM,0.0592
same,relative viability,LU99A; first compound 0.2 µM,1.09
same,relative viability,LU99A; first compound 0.6325 µM,0.957
same,relative viability,LU99A; first compound 2 µM,1.15
same,relative viability,LU99A; first compound 6.325 µM,0.892
same,relative viability,LU99A; first compound 20 µM,0.103
same,relative viability,LOU-NH91; first compound 0.2 µM,0.452
same,relative viability,LOU-NH91; first compound 0.6325 µM,0.403
same,relative viability,LOU-NH91; first compound 2 µM,0.541
same,relative viability,LOU-NH91; first compound 6.325 µM,0.423
same,relative viability,LOU-NH91; first compound 20 µM,0.485
same,relative viability,SK-LU-1; first compound 0.2 µM,1.42
same,relative viability,SK-LU-1; first compound 0.6325 µM,1.07
same,relative viability,SK-LU-1; first compound 6.325 µM,1.2
same,relative viability,SK-LU-1; first compound 20 µM,0.617
same,relative viability,NCI-H441; first compound 0.2 µM,0.387
same,relative viability,NCI-H441; first compound 0.6325 µM,0.407
same,relative viability,NCI-H441; first compound 2 µM,0.347
same,relative viability,NCI-H441; first compound 6.325 µM,0.404
same,relative viability,NCI-H441; first compound 20 µM,0.107
same,relative viability,NCI-H1563; first compound 0.2 µM,0.945
same,relative viability,NCI-H1563; first compound 0.6325 µM,0.822
same,relative viability,NCI-H1563; first compound 2 µM,0.635
same,relative viability,NCI-H1563; first compound 6.325 µM,1.15
same,relative viability,NCI-H1563; first compound 20 µM,0.386
same,relative viability,NCI-H2023; first compound 0.2 µM,1.17
same,relative viability,NCI-H2023; first compound 0.6325 µM,0.877
same,relative viability,NCI-H2023; first compound 2 µM,0.893
same,relative viability,NCI-H2023; first compound 6.325 µM,0.951
same,relative viability,NCI-H2023; first compound 20 µM,1.02
same,relative viability,NCI-H1915; first compound 0.2 µM,1.07
same,relative viability,NCI-H1915; first compound 0.6325 µM,0.695
same,relative viability,NCI-H1915; first compound 2 µM,0.918
same,relative viability,NCI-H1915; first compound 6.325 µM,0.764
same,relative viability,NCI-H1915; first compound 20 µM,0.956
same,relative viability,BEN; first compound 0.2 µM,0.853
same,relative viability,BEN; first compound 0.6325 µM,0.75
same,relative viability,BEN; first compound 6.325 µM,0.888
same,relative viability,BEN; first compound 20 µM,0.864
same,relative viability,NCI-H322M; first compound 0.2 µM,1.3
same,relative viability,NCI-H322M; first compound 6.325 µM,1.29
same,relative viability,NCI-H322M; first compound 20 µM,1.06
same,relative viability,NCI-H460; first compound 0.2 µM,1.38
same,relative viability,NCI-H460; first compound 0.6325 µM,0.967
same,relative viability,NCI-H460; first compound 2 µM,1.05
same,relative viability,NCI-H460; first compound 6.325 µM,0.581
same,relative viability,NCI-H460; first compound 20 µM,0.0059
same,relative viability,PC-3 [JPC-3]; first compound 0.2 µM,0.958
same,relative viability,PC-3 [JPC-3]; first compound 0.6325 µM,0.688
same,relative viability,PC-3 [JPC-3]; first compound 2 µM,0.874
same,relative viability,PC-3 [JPC-3]; first compound 6.325 µM,0.858
same,relative viability,PC-3 [JPC-3]; first compound 20 µM,0.792
same,relative viability,HARA; first compound 0.2 µM,1.24
same,relative viability,HARA; first compound 0.6325 µM,0.704
same,relative viability,HARA; first compound 6.325 µM,1.07
same,relative viability,HARA; first compound 20 µM,1.14
same,relative viability,A-427; first compound 0.2 µM,1.09
same,relative viability,A-427; first compound 0.6325 µM,0.881
same,relative viability,A-427; first compound 2 µM,0.901
same,relative viability,A-427; first compound 6.325 µM,0.839
same,relative viability,A-427; first compound 20 µM,0.962
COCC1(CO)C(=O)C2CCN1CC2 (stereo not given) [PRIMA-1MET] + C[C@@H](Oc1cc(-c2cnn(C3CCNCC3)c2)cnc1N)c1c(Cl)ccc(F)c1Cl [Crizotinib] (partner 1 µM),relative viability,NCI-H23; first compound 0.2 µM,0.599
same,relative viability,NCI-H23; first compound 0.6325 µM,0.471
same,relative viability,NCI-H23; first compound 2 µM,0.48
same,relative viability,NCI-H23; first compound 6.325 µM,0.406
same,relative viability,NCI-H23; first compound 20 µM,0.104
same,relative viability,LXF-289; first compound 0.2 µM,0.81
same,relative viability,LXF-289; first compound 0.6325 µM,0.869
same,relative viability,LXF-289; first compound 2 µM,0.871
same,relative viability,LXF-289; first compound 6.325 µM,0.815
same,relative viability,LXF-289; first compound 20 µM,0.767
same,relative viability,NCI-H2126; first compound 0.2 µM,1.08
same,relative viability,NCI-H2126; first compound 0.6325 µM,1.02
same,relative viability,NCI-H2126; first compound 2 µM,0.957
same,relative viability,NCI-H2126; first compound 6.325 µM,1.04
same,relative viability,NCI-H2126; first compound 20 µM,1.04
same,relative viability,NCI-H1666; first compound 0.2 µM,1.15
same,relative viability,NCI-H1666; first compound 0.6325 µM,0.9
same,relative viability,NCI-H1666; first compound 2 µM,0.987
same,relative viability,NCI-H1666; first compound 6.325 µM,1.25
same,relative viability,NCI-H1666; first compound 20 µM,0.443
same,relative viability,LCLC-97TM1; first compound 0.2 µM,0.494
same,relative viability,LCLC-97TM1; first compound 2 µM,0.378
same,relative viability,LCLC-97TM1; first compound 6.325 µM,0.234
same,relative viability,LCLC-97TM1; first compound 20 µM,0.0997
same,relative viability,LU99A; first compound 0.2 µM,0.564
same,relative viability,LU99A; first compound 0.6325 µM,0.475
same,relative viability,LU99A; first compound 2 µM,0.576
same,relative viability,LU99A; first compound 6.325 µM,0.501
same,relative viability,LU99A; first compound 20 µM,0.0737
same,relative viability,NCI-H2170; first compound 0.2 µM,1.38
same,relative viability,NCI-H2170; first compound 0.6325 µM,1.13
same,relative viability,NCI-H2170; first compound 2 µM,1.02
same,relative viability,NCI-H2170; first compound 6.325 µM,1.26
same,relative viability,NCI-H2170; first compound 20 µM,1.21
same,relative viability,LOU-NH91; first compound 0.2 µM,0.788
same,relative viability,LOU-NH91; first compound 0.6325 µM,0.583
same,relative viability,LOU-NH91; first compound 2 µM,0.743
same,relative viability,LOU-NH91; first compound 6.325 µM,0.773
same,relative viability,LOU-NH91; first compound 20 µM,0.681
same,relative viability,SK-LU-1; first compound 0.2 µM,0.93
same,relative viability,SK-LU-1; first compound 0.6325 µM,0.729
same,relative viability,SK-LU-1; first compound 2 µM,0.837
same,relative viability,SK-LU-1; first compound 6.325 µM,1.09
same,relative viability,SK-LU-1; first compound 20 µM,0.114
same,relative viability,NCI-H441; first compound 0.2 µM,0.934
same,relative viability,NCI-H441; first compound 0.6325 µM,0.78
same,relative viability,NCI-H441; first compound 2 µM,0.646
same,relative viability,NCI-H441; first compound 6.325 µM,0.663
same,relative viability,NCI-H441; first compound 20 µM,0.362
same,relative viability,NCI-H1563; first compound 0.2 µM,0.887
same,relative viability,NCI-H1563; first compound 0.6325 µM,0.806
same,relative viability,NCI-H1563; first compound 2 µM,0.868
same,relative viability,NCI-H1563; first compound 6.325 µM,0.843
same,relative viability,NCI-H1563; first compound 20 µM,0.262
same,relative viability,NCI-H2023; first compound 0.2 µM,0.764
same,relative viability,NCI-H2023; first compound 0.6325 µM,0.623
same,relative viability,NCI-H2023; first compound 2 µM,0.601
same,relative viability,NCI-H2023; first compound 6.325 µM,0.694
same,relative viability,NCI-H2023; first compound 20 µM,0.584
same,relative viability,NCI-H1915; first compound 0.2 µM,0.975
same,relative viability,NCI-H1915; first compound 0.6325 µM,0.703
same,relative viability,NCI-H1915; first compound 2 µM,0.794
same,relative viability,NCI-H1915; first compound 6.325 µM,0.912
same,relative viability,NCI-H1915; first compound 20 µM,0.852
same,relative viability,BEN; first compound 0.2 µM,0.973
same,relative viability,BEN; first compound 0.6325 µM,0.88
same,relative viability,BEN; first compound 6.325 µM,0.974
same,relative viability,BEN; first compound 20 µM,0.735
same,relative viability,NCI-H322M; first compound 0.2 µM,0.75
same,relative viability,NCI-H322M; first compound 6.325 µM,0.991
same,relative viability,NCI-H322M; first compound 20 µM,0.82
same,relative viability,NCI-H460; first compound 0.2 µM,1.45
same,relative viability,NCI-H460; first compound 0.6325 µM,0.579
same,relative viability,NCI-H460; first compound 2 µM,0.898
same,relative viability,NCI-H460; first compound 6.325 µM,0.0132
same,relative viability,NCI-H460; first compound 20 µM,0.0052
same,relative viability,PC-3 [JPC-3]; first compound 0.2 µM,0.995
same,relative viability,PC-3 [JPC-3]; first compound 0.6325 µM,0.911
same,relative viability,PC-3 [JPC-3]; first compound 2 µM,0.966
same,relative viability,PC-3 [JPC-3]; first compound 6.325 µM,1.07
same,relative viability,PC-3 [JPC-3]; first compound 20 µM,0.951
same,relative viability,HARA; first compound 0.2 µM,1.17
same,relative viability,HARA; first compound 0.6325 µM,1.04
same,relative viability,HARA; first compound 6.325 µM,0.987
same,relative viability,HARA; first compound 20 µM,0.99
same,relative viability,A-427; first compound 0.2 µM,0.935
same,relative viability,A-427; first compound 0.6325 µM,0.721
same,relative viability,A-427; first compound 2 µM,0.769
same,relative viability,A-427; first compound 6.325 µM,0.959
same,relative viability,A-427; first compound 20 µM,0.822
